The text below walks through data of patent US8642608B2, “Quinazoline derivatives as VEGF inhibitors” (AstraZeneca AB, priority 1999, dated 2014).

Experiment [1] concerns EGF-stimulated human umbilical vein endothelial cells (HUVEC). The experiment in a line: In vitro HUVEC proliferation assay (b), EGF-stimulated. It counts as cell-based. To be noted: 96 h, test (b), EGF 3 ng/ml, 4 days, tritiated-thymidine incorporation. The method, then:
(§1) (b) In Vitro HUVEC Proliferation Assay
(§2) HUVEC cells were isolated in MCDB 131 (Gibco BRL)+7.5% v/v foetal calf serum (FCS) and were plated out (at passage 2 to 8), in MCDB 131+2% v/v FCS+3 μg/ml heparin+1 μg/ml hydrocortisone, at a concentration of 1000 cells/well in 96 well plates. After a minimum of 4 hours they were dosed with the appropriate growth factor (i.e. VEGF 3 ng/ml, EGF 3 ng/ml or b-FGF 0.3 ng/ml) and compound. The cultures were then incubated for 4 days at 37° C. with 7.5% carbon dioxide. On day 4 the cultures were pulsed with 1 μCi/well of tritiated-thymidine (Amersham product TRA 61) and incubated for 4 hours. The cells were harvested using a 96-well plate harvester (Tomtek) and then assayed for incorporation of tritium with a Beta plate counter. Incorporation of radioactivity into cells, expressed as cpm, was used to measure inhibition of growth factor-stimulated cell proliferation by compounds.
(Uptake of a labelled nucleoside into DNA is a usual measure of proliferation.)

The test system of the next experiment is CaLu-6 tumour xenografts. The experiment can be described thus: In vivo solid tumour disease model (c). More on the design: species or system female athymic Swiss nu/nu mice. To be noted: 50 mg/kg, orally once daily, CaLu-6 xenografts in mice; p<0.001 (Mann-Whitney Rank Sum Test). Here is the method: (c) In Vivo Solid Tumour Disease Model
This test measures the capacity of compounds to inhibit solid tumour growth.
CaLu-6 tumour xenografts were established in the flank of female athymic Swiss nu/nu mice, by subcutaneous injection of 1×10^6 CaLu-6 cells/mouse in 100 μl of a 50% (v/v) solution of Matrigel in serum free culture medium. […] Tumours were measured using vernier calipers and volumes were calculated as: (l×w)×√(1×w)×(π/6), where 1 is the longest diameter and w the diameter perpendicular to the longest diameter. Test compounds were administered orally once daily for a minimum of 21 days, and control animals received compound diluent. Tumours were measured twice weekly. The level of growth inhibition was calculated by comparison of the mean tumour volume of the control group versus the treatment group, and statistical significance determined using a Students' t-test and/or a Mann-Whitney Rank Sum Test. The inhibitory effect of compound treatment was considered significant when p<0.05.

The test system of experiment [2] is human umbilical vein endothelial cells (HUVEC), basal. The experiment in a line: In vitro HUVEC proliferation assay (b), basal. The settings on record: test (b). It counts as cell-based.
For experiment [3], the system named is VEGF-stimulated human umbilical vein endothelial cells (HUVEC). The experiment can be described thus: In vitro HUVEC proliferation assay (b), VEGF-stimulated. To be noted: 96 h, test (b), VEGF 3 ng/ml, 4 days, tritiated-thymidine incorporation. It counts as cell-based. Here is the method: as §1, §2
Experiment [4] deals with femoral epiphyseal growth plates of the distal femur and proximal tibia. The experiment can be described thus: 14 day toxicity test in rat (d). It counts as in vivo, Alderley Park rats (Wistar derived). To be noted: 100 mg/kg/day, oral gavage, 14 days, female rats; p<0.001 (one-tailed Students' t-test). The source says: The toxicological profile of compounds of the present invention may be assessed, for example using a rat 14 day study as described hereinafter.
(d) 14 Day Toxicity Test in Rat
This test measures the activity of compounds in increasing the zone of hypertrophy in the femoral epiphyseal growth plates of the distal femur and proximal tibia, and allows assessment of histopathological changes in other tissues.
A. Preclinical Safety Evaluation of rhuMAbVEGF, an antiangiogenic humanised monoclonal antibody, Tox. Path., 27: 78-86, 1999).
Compounds were initially formulated by suspension in a 1% (v/v) solution of polyoxyethylene (20) sorbitan mono-oleate in deionised water, by ball-milling at 4° C. overnight (at least 15 hours). Compounds were re-suspended by agitation immediately prior to dosing. […] The femoral epiphyseal growth plate areas of the distal femur and proximal tibia were measured in sections of femur and tibia using morphometric image analysis. The increase in the zone of hypertrophy was determined by comparison of the mean epiphyseal growth plate area of the control group versus the treatment group, and statistical significance determined using a one-tailed Students' t-test. […]

One may read the IC50 as the concentration that gives 50% inhibition. The low end stands for greater potency in that assay, the high end for weaker potency in that assay. As for `COc1cc2c(Nc3ccc(Br)cc3F)ncnc2cc1OCC1CCN(C)CC1` [Example 2, 4-(4-bromo-2-fluoroanilino)-6-methoxy-7-(1-methylpiperidin-4-ylmethoxy)quinazoline], the IC50 is 170 nM in experiment [1], greater than 3000 nM in experiment [2] and 60 nM in experiment [3]. Moreover, the “inhibition of tumour growth” value in the experiment with CaLu-6 tumour xenografts is 78%. Moreover, in experiment [4], the “increase in epiphyseal growth plate hypertrophy” value was determined as 75%.
